This is an account of results in patent publication US10842814B2, “Use of low dose arsenic for preserving genomic integrity” (Board of Regents of the University of Texas System, priority 2016, dated 2020).

Entries after “also recorded” stand apart in the source; their conditions may differ. Some results are limits rather than exact numbers.

Data set [1] can be described thus: Observation of arsenic-induced malignancy in animal model. The data set is classed as in vivo. The source says:
Arsenic has different biological effects in vitro and induces expression of different sets of genes depending on the dose. Our approach with LDA aims to mitigate certain known adverse biological effects. For example, arsenic trioxide is a cytotoxic agent used to treat acute promyelocytic leukemia (APL). However, the dose of arsenic trioxide used for our strategy is much lower than the dose used to treat APL. Arsenic is also a known carcinogen.

The target of data set [2] is T1, telomerase (Homo sapiens, UniProt O14746).
T1 construct: Extracted protein (500 ng) was used to assess telomerase activity by TRAP; endogenous in cells; host or cells: HEK 293T cells
T1 sequence (O14746 whole entry): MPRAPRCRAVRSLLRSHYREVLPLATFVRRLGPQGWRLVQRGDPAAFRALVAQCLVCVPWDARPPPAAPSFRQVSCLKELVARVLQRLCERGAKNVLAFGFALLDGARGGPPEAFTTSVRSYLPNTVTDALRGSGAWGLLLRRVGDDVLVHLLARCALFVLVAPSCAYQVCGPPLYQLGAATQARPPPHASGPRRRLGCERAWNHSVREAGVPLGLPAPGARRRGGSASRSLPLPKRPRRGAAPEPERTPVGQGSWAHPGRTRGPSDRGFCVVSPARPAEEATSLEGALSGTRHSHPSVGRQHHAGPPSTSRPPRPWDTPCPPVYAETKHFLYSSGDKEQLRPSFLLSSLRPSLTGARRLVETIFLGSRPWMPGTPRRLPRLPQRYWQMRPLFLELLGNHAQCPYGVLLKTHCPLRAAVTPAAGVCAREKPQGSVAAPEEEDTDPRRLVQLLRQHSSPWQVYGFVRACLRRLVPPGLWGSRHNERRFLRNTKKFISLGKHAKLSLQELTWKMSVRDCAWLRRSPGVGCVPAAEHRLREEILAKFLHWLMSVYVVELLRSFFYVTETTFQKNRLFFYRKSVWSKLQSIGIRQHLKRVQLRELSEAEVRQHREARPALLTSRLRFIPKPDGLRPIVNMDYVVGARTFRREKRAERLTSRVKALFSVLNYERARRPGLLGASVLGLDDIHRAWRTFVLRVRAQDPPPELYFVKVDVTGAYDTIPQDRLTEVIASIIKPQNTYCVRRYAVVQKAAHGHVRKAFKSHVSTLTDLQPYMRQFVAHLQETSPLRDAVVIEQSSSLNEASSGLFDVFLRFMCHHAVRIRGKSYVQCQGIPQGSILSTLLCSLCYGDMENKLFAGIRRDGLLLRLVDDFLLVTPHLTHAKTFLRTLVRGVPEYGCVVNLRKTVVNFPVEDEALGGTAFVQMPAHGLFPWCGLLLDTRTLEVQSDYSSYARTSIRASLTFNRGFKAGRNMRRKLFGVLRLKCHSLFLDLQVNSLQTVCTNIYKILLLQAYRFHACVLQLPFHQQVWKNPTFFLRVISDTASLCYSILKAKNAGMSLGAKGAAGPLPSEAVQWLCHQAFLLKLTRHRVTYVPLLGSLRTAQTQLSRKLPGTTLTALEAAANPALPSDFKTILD
T1 sequence (O60832 whole entry partner): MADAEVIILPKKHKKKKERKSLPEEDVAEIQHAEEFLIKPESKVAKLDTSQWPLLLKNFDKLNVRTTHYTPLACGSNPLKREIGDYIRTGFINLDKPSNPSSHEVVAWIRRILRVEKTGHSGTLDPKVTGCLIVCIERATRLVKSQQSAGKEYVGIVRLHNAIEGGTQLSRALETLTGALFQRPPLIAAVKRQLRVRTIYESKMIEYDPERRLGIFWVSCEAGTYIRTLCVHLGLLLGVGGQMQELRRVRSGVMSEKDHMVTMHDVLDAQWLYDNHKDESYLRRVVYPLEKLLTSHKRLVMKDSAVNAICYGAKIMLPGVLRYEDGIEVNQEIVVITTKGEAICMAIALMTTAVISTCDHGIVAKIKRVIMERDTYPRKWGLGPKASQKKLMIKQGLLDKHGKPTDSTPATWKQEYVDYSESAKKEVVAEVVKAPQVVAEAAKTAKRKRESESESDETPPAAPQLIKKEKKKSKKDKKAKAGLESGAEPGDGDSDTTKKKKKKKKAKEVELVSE
T1 sequence (Q9NPE3 whole entry partner): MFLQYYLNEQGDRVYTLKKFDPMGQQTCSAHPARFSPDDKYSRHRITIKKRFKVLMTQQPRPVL
T1 sequence (Q9NX24 whole entry partner): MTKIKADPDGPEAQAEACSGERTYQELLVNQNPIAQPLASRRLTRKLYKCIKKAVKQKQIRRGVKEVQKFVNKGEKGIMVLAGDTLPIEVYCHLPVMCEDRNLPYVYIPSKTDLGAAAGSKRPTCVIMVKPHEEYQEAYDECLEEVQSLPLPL
T1 sequence (Q9NY12 whole entry partner): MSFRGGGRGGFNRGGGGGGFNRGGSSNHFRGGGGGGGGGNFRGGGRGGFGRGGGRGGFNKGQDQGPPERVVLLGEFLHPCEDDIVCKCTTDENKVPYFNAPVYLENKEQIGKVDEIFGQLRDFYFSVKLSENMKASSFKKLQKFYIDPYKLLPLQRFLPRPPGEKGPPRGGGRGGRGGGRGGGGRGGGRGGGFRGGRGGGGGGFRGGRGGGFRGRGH
T1 sequence (Q9BUR4 whole entry partner): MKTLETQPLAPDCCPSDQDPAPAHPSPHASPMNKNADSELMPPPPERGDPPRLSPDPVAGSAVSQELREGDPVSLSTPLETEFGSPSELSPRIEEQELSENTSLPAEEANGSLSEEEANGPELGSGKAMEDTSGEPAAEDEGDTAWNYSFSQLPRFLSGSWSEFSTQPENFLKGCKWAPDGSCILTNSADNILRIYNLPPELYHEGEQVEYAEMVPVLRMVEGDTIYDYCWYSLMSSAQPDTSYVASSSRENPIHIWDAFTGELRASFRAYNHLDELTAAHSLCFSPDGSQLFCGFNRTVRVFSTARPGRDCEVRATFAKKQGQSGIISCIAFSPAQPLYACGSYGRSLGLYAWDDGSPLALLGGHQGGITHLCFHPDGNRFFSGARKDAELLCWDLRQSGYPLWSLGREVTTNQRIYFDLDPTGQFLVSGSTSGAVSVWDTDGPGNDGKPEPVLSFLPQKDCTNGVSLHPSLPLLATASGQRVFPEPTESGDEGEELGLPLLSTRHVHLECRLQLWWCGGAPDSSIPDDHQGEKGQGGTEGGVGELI
Briefly: Telomerase activity by TRAP assay. The class given is cell-based. Particulars: HEK 293T, LDA 0 nM to 500 nM for 24 hrs, 12 Gy IR, further 48 hrs. As to the method: FIG. 7. HEK cells were stimulated with ConA, 10 μg/ml. After 24 hrs, LDA was introduced (range from 0 nM to 500 nM) and again incubated 24 hrs. 12 Gy of IR was delivered, cells were incubated an additional 48 hrs and harvested. Extracted protein (500 ng) was used to assess telomerase activity by TRAP, compared with a telomerase positive control and no-Arsenic, no-IR control. HI: heat inactivated.
However, we will test this observation in T lymphocytes, which are known to dynamically regulate telomerase expression. This will better recapitulate the effect of LDA within the hematopoietic compartment.

Data set [3] in a line: Clinical trial: toxicity and blood counts during myelosuppressive chemotherapy. The class given is in vivo, human. An excerpt:
Additionally, data from a clinical trial supports a beneficial effect of LDA in patients. The trial had two objectives: 1) to define the lowest safe dose of arsenic trioxide that blocks p53 activation in patients and 2) to assess the potential of LDA in decreasing hematological toxicity from myelosuppressive chemotherapy. Patients scheduled for treatment with at least 4 cycles of myelosuppressive chemotherapy with a minimum of 2 weeks between the cycles were eligible.
The p53 expression level in patients' peripheral lymphocytes was measured as a surrogate marker for p53 activity for the patients. […] For the second stage of the study (second objective), patients were treated with chemotherapy without any LDA pretreatment before cycles 1, 3 and 5. They were treated with intravenous LDA of 0.005 mg/kg for 3 days prior to cycles 2, 4 and 6. […] Because the competing and compounding effects of multi-drug chemotherapy on p53 were felt to affect the p53 activity even in the presence of LDA pretreatment, we decided to focus on p53 activity obtained just prior to chemotherapy administration (on day 1). If the p53 activity level for the subsequent cycle (e.g., cycle 2 for cycle 1, cycle 4 for cycle 3 etc.) was lower than the baseline cycle, p53 was defined as “suppressed” for the pair of cycles. […]

In data set [4] the test system is human adult foreskin keratinocytes. Particulars: cited from earlier work.
Data set [5] relates to mouse embryonic stem cells expressing RAD51^K133A. The data set is described as follows: Loss of heterozygosity (LOH) assay, miniHPRT deletion, 6-TG resistance. The class given is cell-based. The source says:
FIG. 8. […] NT; no arsenite treatment, WT; wild type embryonic stem cells, KA; mutant embryonic stem cells expressing RAD51^K133A
We performed a loss of heterozygosity (LOH) assay to detect mutations in the HPRT gene [resistance to 6-TG (thioguanine)] utilizing a mouse embryonic stem cells that express RAD51^K133A. We used a knockout-knockin strategy that introduces RAD51^K133A adjacent to the mouse RAD51 promoter while restoring miniHPRT, a positive/negative selection cassette: select for expression in HAT (hypoxanthine, aminopterin, thymidine) and select against expression in 6-TG. We screen for LOH of miniHPRT by selecting in 6-TG. Using this assay, we can detect a broad range of mutations. RAD51 is a recombinase that is essential for DNA double strand break repair and for protecting the nascent strand during replication. The K133A mutation is in the highly conserved Walker A motif and it causes a defect in ATP binding that disables the ability of RAD51 to induce topological changes in duplex DNA in an ATP-dependent manner.
For this assay, mutant mouse embryonic stem cells expressing RAD51^K133A were passaged two times while being selected in HAT to remove any cells that spontaneously deleted miniHPRT. Then LDA and HAT were applied to these cells for 2 days. […] Cells were then seeded onto new plates in 6-TG and colonies were counted 8 days later. […]

The test system of data set [6] is bone marrow cells. Briefly: Bone marrow protection against Y-90 ibritumomab tiuxetan-induced damage (H&E, γ-H2AX, TUNEL staining). The data set is classed as in vivo, BALB/c mice. As to the method: At the indicated time points, mice were sacrificed by cervical […] and bone marrows were harvested for staining. (A) Quantification of γ-H2AX positive cells.
LDA pretreatment was administered through drinking water containing 1 mg/L arsenic trioxide for three days. […] Tissue samples were collected at different time points (3 hours to 5 weeks) after treatment.
Bone marrow damage was analyzed histologically with hematoxylin and eosin (H&E) staining, DNA DSBs were assessed by γ-H2AX staining and apoptosis was detected by terminal deoxynucleotidyl transferase dUTP nick end labeling (TUNEL) staining.

Data set [7] relates to peripheral T-lymphocytes. The data set is described as follows: Telomere length of ConA-stimulated peripheral blood T-lymphocytes after radiation or chemotherapy. The data set is classed as cell-based, human. Particulars: 100 nM arsenic trioxide for 24 hours, then 12 Gy X-ray, harvested 48 hours later. On the procedure: FIG. 2. T-lymphocytes isolated from healthy donors' peripheral blood were incubated with 10 μg/ml of Concanavalin A overnight. The cells were treated with either solvent or 100 nM arsenic (As) trioxide for 24 hours, followed by 12 Gy of X-ray treatment. Forty-eight hours later, the cells were harvested for telomere length measurement. The results represent four independent experiments. Paired student's t-test was used to calculate the p values.
FIG. 3. (A) Live cell percentage and (B) relative telomere length of T-lymphocytes in response to a serial dilution of etoposide. (C) Live cell percentage and (D) relative telomere length of T-lymphocytes treated with solvent or 160 μM etoposide in the presence or absence of LDA pretreatment.
FIG. 4. (A) Live cell percentage and (B) relative telomere length of T-lymphocytes in response to a serial dilution of doxorubicin. (C) Live cell percentage and (D) relative telomere length of T-lymphocytes treated with solvent or 1.6 μM doxorubicin in the presence or absence of LDA pretreatment.
As one of the first steps to explore the role of LDA in protecting the bone marrow from DNA DSBs as observed in FIG. 1 above, we studied the effect of LDA on telomere length in the setting of IR. We observed the expected shortening of telomere length in the peripheral T-lymphocytes (obtained from donors' peripheral blood and proliferated with ConA) after IR.

The test system of data set [8] is Karpas 422. Briefly: Mouse xenograft model with CD20 expressing lymphoma cell line, tumor volume. The class given is in vivo. As to the method: Treatments were initiated 1 week after implantation when tumors became palpable. Tumor volumes were measured periodically with calipers. Tumor volume was calculated using the equation: volume=length×width×depth×0.5236 […]. Two independent experiments were done and the tumor volumes were expressed as means±SE.

For data set [9], the system named is mouse embryonic stem (ES) cells (WT, msh2−/−, p53−/−). Briefly: Survival fraction of ES cells exposed to γ radiation and LDA. The class given is cell-based. As to the method: FIG. 6. Dose response to γ radiation and sodium (Na) arsenite. (A, B) Survival fraction curves to determine the working doses. The wild type (WT) cells (black, green) are the parental cells for the msh2 and p53 mutations, respectively. (C, D) Survival fraction curves with msh2−/− and p53−/− cells exposed to γ radiation and LDA (100 nM Na arsenite). Error bars are shown for the average of 3 independent experiments.
To discover LDA essential genes, cell survival and DNA damage/mutation assays will be performed. First we will establish working doses for all control and mutant cells in Table 1 since they will vary depending on the mutation. As a pilot we started with ES cells mutated for Msh2 and p53 since mutations in both are implicated in the development and progression of secondary MDS/AML.
Msh2 is a member of mismatch repair (MMR) important for postreplication repair and homologous recombination regulation while p53 is essential for responses to a variety of stresses including DNA damage and ribosomal stress. Based on the dose response curve (FIGS. 6A, B), cells will be exposed to 100 nM sodium arsenite 24 hours before exposure to 3-6 Gy. […] Since the differences for the […] cells and their control cells are small, we will repeat the experiment with different Na arsenite doses. […]

Data set [10] has as its system untransformed cells. The data set is described as follows: Pretreatment of untransformed cells with LDA: p53, NF-kB, glycolysis. The class given is cell-based. As to conditions: in vitro and in vivo studies. An excerpt:
Activation of p53 is one of the major pathways by which DNA damaging agents such as radiation therapy and chemotherapy cause toxicity in normal tissues and it induces a cascade of events that eventually leads to cell senescence or death. […] This metabolic shift provides cells with effective protection against cytotoxic radiation or chemotherapy, coupling the metabolic pathway to cellular resistance. […] This protective effect is selective to normal tissues, as it requires functional p53. Though not every cancer cell has detectable p53 mutation, essentially every cancer cell has dysfunctional p53. Therefore, cancer cells will not be protected by this strategy.
Activation of p53 is one of major pathways by which DNA damaging agents such as IR and chemotherapy cause toxicity in normal tissues, inducing a cascade of events that eventually leads to cell senescence or cell death. […] This metabolic shift provides cells with effective protection against cytotoxic IR or chemotherapy, coupling the metabolic pathway to cellular resistance. […] Importantly, this protective effect is selective to normal tissues, as it requires functional p53. Though not every cancer cell has a detectable p53 mutation, essentially every cancer cell has dysfunctional p53. Therefore, cancer cells will not be protected by this strategy.

Data set [11] concerns T-cell leukemic cell line (Loucy). Briefly: Relative telomere length of T-cell leukemic cell line after 12 Gy radiation. As to conditions: presence or absence of LDA. The class given is cell-based. The source says: FIG. 5. Relative telomere length of T-cell leukemic cell line (Loucy) after 12 Gy of radiation in the presence or absence of LDA treatment.
Data set [12] concerns telomere. As to conditions: individuals with telomere maintenance disorders; cited from earlier work.

For the compound `[AsH3]` [arsenic], the arsenic-induced malignancy entry in data set [1] is given as “not observed any arsenic-induced malignancy”. Also, the “telomerase activity (TRAP)” value in data set [2] is reported as “no obvious difference in telomerase activity”.

On to arsenic trioxide, for which, in [3] (patients, first stage, arsenic trioxide intravenously), the “arsenic trioxide related toxicity” value is given as “None of these patients experienced any arsenic trioxide related toxicity”.

Consider `O[As](O)O` [arsenite], for which, in data set [4] (24 hr), the “concentration resulting in induced proliferation with enhanced NF-κB and AP-1 activity” value was not above 5 µM. For the same compound, the “concentration with statistically significant decrease of cell viability” value in data set [4] is not below 10 µM.

As for `O=[As]O` [sodium arsenite], the “spontaneous deletion of miniHPRT (percentage of 6-TG-resistant cells)” value in data set [5] (5 nM sodium arsenite) and in data set [5] (100 nM sodium arsenite) was “reduced this deletion” each time.

Consider arsenic trioxide [LDA], for which, in [6] (LDA pretreatment (drinking water 1 mg/L arsenic trioxide, three days) before 200 μCi Y-90 ibritumomab tiuxetan via tail vein), the “bone marrow cell loss (loss of cellularity), H&E staining” value was “protected; also recorded: significantly reduced”. Moreover, the “apoptosis, TUNEL positive cells in bone marrow” value in [6] (LDA pretreatment before 200 μCi Y-90 ibritumomab tiuxetan) was “protected”. Besides, the “DNA DSBs, γ-H2AX positive cells in bone marrow” value in data set [6] (LDA pretreatment before 200 μCi Y-90 ibritumomab tiuxetan, 6 hours to 1 week after treatment) is reported as “protected; also recorded: considerably diminished”. Further, in [7], the “telomere length after IR” value is “maintenance of telomere length; also recorded: helps prevent shortening of telomere length”. Moreover, the “growth of the implanted tumors (tumor volume)” value in data set [8] (LDA pretreatment alone) is reported as “did not have any detectable effect”. Further, the “effect of LDA pretreatment on Y-90-induced tumor growth suppression” value in [8] (LDA pretreatment followed by Y-90 ibritumomab tiuxetan) is given as “without compromising tumor response; also recorded: no effect”. Also, the “LDA protection of control and msh2−/− cells from γ radiation (survival fraction)” value in data set [9] (100 nM Na arsenite 24 hours before γ radiation) was “protects both control and msh2^−/− cells from γ radiation”. Moreover, the “LDA-mediated protection in p53−/− cells versus WT (survival fraction)” value in [9] (100 nM Na arsenite, γ radiation, differences small) is on record as “p53 appears to assist in LDA-mediated protection”. Besides, in data set [10], the glycolysis entry is reported as “marked induction of glycolysis”; the “p53 and NF-kB response” value was “induces concerted p53 suppression and NF-kB activation”. Besides, the “telomere length of leukemic cells” value in [11] is “does not make any difference”. The “mean ANC, WBC and Hgb, p53 suppressed group relative to activated group” value in [3] (26 patients, LDA 0.005 mg/kg for 3 days before myelosuppressive chemotherapy cycles) is “statistically significantly higher; also recorded: better blood counts”.

Turning to `C#C[C@]1(O)CC[C@H]2[C@@H]3CCC4=Cc5oncc5C[C@]4(C)[C@H]3CC[C@@]21C` [danazol], the telomere attrition result in data set [12] was “significantly reduce telomere attrition”.
